Measurements: US20240124454A1, “TRICYCLIC COMPOUND AND USE THEREOF” (NANJING ZAIMING PHARMACEUTICAL CO., LTD., priority 2020, published 2024)
Like-named read-outs stand apart in the source and are kept apart here.

How the values were obtained:
[1] = target: hERG potassium channel (Homo sapiens (Human), UniProt Q12809); assay: hERG inhibitory activity, manual patch-clamp in HEK293 cells; assay type: cell-based; details: HEK293 stably expressing hERG
Experimental: Test Example 8. Assay for hERG Inhibitory Activity of Compound of Present Application
The inhibition of hERG activity by the compounds of the present application was determined using the following method.
I. Experimental materials and instruments • 1. Dialyzed fetal bovine serum Shanghai Bohan Biotechnology Co., Ltd (BS-0005-500) • 2. DMEM culture medium Thermo Fisher Scientific (China) Co., Ltd. (10569) • 3. HEPES Thermo Fisher Scientific (China) Co., Ltd. (15630080) • 4. Trypsin Thermo Fisher Scientific (China) Co., Ltd. (2192509) • 5. Penicillin-streptomycin solution Thermo Fisher Scientific (China) Co., Ltd. (15140-122) • 6. MEM non-essential amino acid solution Thermo Fisher Scientific (China) Co., Ltd. (11140) • 7. Geneticin (G418) Thermo Fisher Scientific (China) Co., Ltd. (11811031) • 8. Blasticidin Thermo Fisher Scientific (China) Co., Ltd. (R21001) • 9. PolylysineThermo Fisher Scientific (China) Co., Ltd. (P4832) • 10. Dofetilide Beijing Express Technology Co., Ltd. (D525700) • 11. Doxycycline Sigma-Aldrich (Shanghai) Trading Co., Ltd. (D9891) • 12. Carbon dioxide incubator Thermo Fisher Scientific (China) Co., Ltd. (371) • 13. Puller Sutter Company, U.S. (P-97) • 14. Micromanipulator Siskiyou Company, U.S. (MC1000e) • 15. Micromanipulator Sutter Company, U.S. (ROE-200; MP285) • 16. Amplifier HEKA Company, Germany (EPC10) • 17. Microscope Olympus (China) Co., Ltd. (IX51/71/73) • 18. Perfusion system ALA Company, U.S. (VM8 gravity administration system)
II. Culture of cell lines and cells
HEK293 cells (Cat. No: K1236) stably expressing hERG ion channel were purchased from Invitrogen. The cells were cultured in a culture medium containing 85% DMEM, 10% dialyzed fetal bovine serum, 0.1 mM non-essential amino acid solution, 100 U/mL penicillin-streptomycin solution, 25 mM HEPES, 5 μg/mL blasticidin, and 400 μg/mL geneticin. When the cell density increased to 40-80% of the bottom area of the culture dish, the cells were digested with trypsin and subcultured thrice every week. Before the experiment, the cells were cultured at a density of 5×10^5 in 6-cm culture dishes, induced for 48 h with 1 μg/mL doxycycline, and then digested and inoculated on a slide for the subsequent manual patch-clamp experiment.
III. Preparation of solutions
1) Extracellular fluid: 132 mM sodium chloride, 4 mM potassium chloride, 3 mM calcium chloride, 0.5 mM magnesium chloride, 11.1 mM glucose, and 10 mM HEPES (adjusted to pH 7.35 with sodium hydroxide).
2) Intracellular fluid: 140 mM potassium chloride, 2 mM magnesium chloride, 10 mM EGTA, 5 mM ATP-magnesium salt, and 10 mM HEPES (adjusted to pH 7.35 with potassium hydroxide).
Note: the osmotic pressure of the solutions was controlled at 280-300 mOsmol/kg. The solutions were filtered and stored at 4° C. before use. The ATP-magnesium salt was prepared into a 100 mM stock solution, subpackaged, and stored in a −20° C. refrigerator. On the day of the experiment, a certain amount of the stock solution was added into the intracellular fluid right before use.
1) The slides carrying HEK293 cells in the culture dish were placed in the perfusion chamber of the micromanipulation stage.
2) Appropriate cells were placed in the center of the field of view under an Olympus IX51, IX71, or IX73 inverted microscope. The tip of the glass electrode was found using a 10× objective lens and placed in the center of the field of view. The electrode was then moved down using a micromanipulator while the electrode was slowly brought into proximity to the cell using the coarse adjustment.
3) When the electrode was in close proximity to the cell, the lens was switched to a 40× objective lens for observation. The micromanipulator was used for fine adjustment to make the electrode approach the surface of the cell gradually.
4) Negative pressure was applied to form a seal with a resistance higher than 1 GΩ between the electrode tip and the cell membrane. […]

[2] = Pharmacokinetics in Balb/c Nude mice; assay type: in vivo; details: female, mouse, plasma; for bioavailability: Balb/c Nude, vs IV 1 mg/kg; for AUC(0-t): Balb/c Nude mice, read-out: AUC0-24
Experimental: Test Example 9. Determination of Pharmacokinetics of Compounds of Present Application
The pharmacokinetics of the compounds of the present application were determined in mice using the following method.
I. Materials: • Balb/c Nude mice, purchased from Beijing Vital River Laboratory Animal Technology Co., Ltd. • NMP (N-methyl-2-pyrrolidone), Solutol® HS 15 (polyoxyethylenated 12-hydroxystearic acid), and Vitamin E TPGS (D-a-tocopherol-polyethylene glycol 1000 succinate), purchased from Sigma. • Acetonitrile, purchased from Merck (USA).
II. Vehicle preparation: • 10% aqueous VE TPGS solution: 1 g of VE TPGS was dissolved in purified water, and the volume was brought to 10 mL. • 5% NMP+10% Solutol® HS 15+85% water: 0.5 mL of NMP was measured using a pipette, 1 g of Solutol® HS 15 was weighed, and the volume was brought to 10 mL with water.
6 female Balb/c Nude mice (20-30 g, 4-6 weeks) were randomized into 2 groups of 3. Group 1 was administered with 1 mpk (1 mg/kg) test compound by injection at the tail vein (IV), and the vehicle was 5% NMP+10% Solutol® HS 15+85% water. Group 2 was administered with 1 or 3 mpk test compound by oral administration (PO) (see the table below for specific doses), and the vehicle was 5% NMP+10% Solutol® HS 15+85% water or 10% Vitamin E TPGS aqueous solution. Before the experiment, all animals were given free access to food and water. Blood samples of the mice in each group were collected intravenously pre-dose and at 0.083 h (only the intravenous injection group), 0.25 h, 0.5 h, 1 h, 2 h, 4 h, 6 h, 8 h, and 24 h post-dose. The whole blood samples were collected in K2EDTA vacutainers, and the plasma samples were prepared by 5 min of centrifugation (4000 rpm, 4° C.).
10 μL of mouse plasma was added to 150 μL acetonitrile solvent (containing an internal standard) to precipitate the protein. The mixture was vortexed for 0.5 min and centrifuged (14000 rpm) for 5 min. The supernatant was diluted 2-fold with water containing 0.1% (v/v) FA and quantitatively detected on an LC-MS/MS system (AB Sciex Triple Quad 6500+). When the concentration of the sample was measured, quality control samples were also analyzed and a Balb/c Nude mouse plasma standard curve was plotted. For 10× diluted samples, 2 μL of the sample was added to 18 μL of blank plasma. The mixture was vortexed for 0.5 min. Then 300 μL of acetonitrile solvent (containing an internal standard) was added to precipitate the protein. The other steps were the same as those in undiluted samples.

[3] = PO 1 mg/kg, vehicle 5% NMP + 10% Solutol HS 15 + 85% water
[4] = PO 3 mg/kg, vehicle 10% VE TPGS aqueous solution

Chain of hERG potassium channel (Q12809 whole entry): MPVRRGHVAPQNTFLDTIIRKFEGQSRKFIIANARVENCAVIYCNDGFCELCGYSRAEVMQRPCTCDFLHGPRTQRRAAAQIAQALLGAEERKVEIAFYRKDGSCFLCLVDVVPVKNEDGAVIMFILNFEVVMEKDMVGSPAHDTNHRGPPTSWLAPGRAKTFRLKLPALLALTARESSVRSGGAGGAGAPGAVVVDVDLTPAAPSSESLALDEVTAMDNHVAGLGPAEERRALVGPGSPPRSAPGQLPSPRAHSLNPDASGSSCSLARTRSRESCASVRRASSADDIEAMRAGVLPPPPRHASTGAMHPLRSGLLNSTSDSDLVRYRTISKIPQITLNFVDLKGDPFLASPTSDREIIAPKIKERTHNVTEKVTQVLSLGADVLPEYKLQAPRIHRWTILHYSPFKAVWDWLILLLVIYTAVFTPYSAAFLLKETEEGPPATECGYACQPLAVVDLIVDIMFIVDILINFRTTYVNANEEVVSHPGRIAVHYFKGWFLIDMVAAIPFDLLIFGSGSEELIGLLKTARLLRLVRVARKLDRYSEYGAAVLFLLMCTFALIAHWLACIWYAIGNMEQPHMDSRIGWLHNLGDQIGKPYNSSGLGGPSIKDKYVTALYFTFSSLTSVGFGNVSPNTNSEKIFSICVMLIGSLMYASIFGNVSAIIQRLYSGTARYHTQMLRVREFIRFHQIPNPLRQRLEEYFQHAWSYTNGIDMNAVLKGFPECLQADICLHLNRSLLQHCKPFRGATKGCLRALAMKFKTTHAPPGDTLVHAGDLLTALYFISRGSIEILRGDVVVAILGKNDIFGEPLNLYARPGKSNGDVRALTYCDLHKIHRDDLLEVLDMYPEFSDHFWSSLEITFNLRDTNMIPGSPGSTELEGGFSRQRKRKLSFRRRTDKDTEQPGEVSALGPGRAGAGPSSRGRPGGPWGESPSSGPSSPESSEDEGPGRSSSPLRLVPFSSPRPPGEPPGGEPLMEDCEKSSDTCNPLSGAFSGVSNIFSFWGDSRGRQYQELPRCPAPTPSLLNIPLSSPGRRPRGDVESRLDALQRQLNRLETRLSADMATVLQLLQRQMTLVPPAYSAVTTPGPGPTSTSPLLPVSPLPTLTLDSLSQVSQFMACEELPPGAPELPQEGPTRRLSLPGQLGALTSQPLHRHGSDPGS

SMILES | IC50 [1] | bioavailability [2, 3] | AUC(0-t) [2, 3] | bioavailability [2, 4] | AUC(0-t) [2, 4]
Cc1ncccc1-n1c(=O)c2ncn(C)c2c2ccc(C(F)(F)F)nc21 (atropisomer, axis not shown) [Compound 20, 1-methyl-5-(2-methylpyridin-3-yl)-7-(trifluoromethyl)-1,5-dihydro-4H-imidazo[4,5-c][1,8]naphthyridin-4-one] | > 30 nM |  |  |  | 
Cn1cnc2c(=O)n(-c3cccc(F)c3Cl)c3nc(C(F)(F)F)ccc3c21 (atropisomer, axis not shown) [Compound 25, 5-(2-chloro-3-fluorophenyl)-1-methyl-7-(trifluoromethyl)-1,5-dihydro-4H-imidazo[4,5-c][1,8]naphthyridin-4-one] | > 30 nM | ~100% | 5840 ng·h/mL |  | 
Cn1cnc2c(=O)n(-c3cccc(F)c3Cl)c3nc(C(F)(F)F)ccc3c21 (single isomer, unassigned) [Compound 25-P2, 5-(2-chloro-3-fluorophenyl)-1-methyl-7-(trifluoromethyl)-1,5-dihydro-4H-imidazo[4,5-c][1,8]naphthyridin-4-one] | > 30 nM |  |  | ~100% | 30300 ng·h/mL
Cn1cnc2c(=O)n(-c3cccnc3C(F)(F)F)c3nc(C(F)(F)F)ccc3c21 (single isomer, unassigned) [Compound 41-P2, 1-methyl-7-(trifluoromethyl)-5-(2-(trifluoromethyl)pyridin-3-yl)-1,5-dihydro-4H-imidazo[4,5-c][1,8]naphthyridin-4-one] | > 30 nM | ~100% | 10500 ng·h/mL |  | 
Cn1cnc2c(=O)n(-c3cccnc3C3CC3)c3nc(C(F)(F)F)ccc3c21 (single isomer, unassigned) [Compound 42-P2, 5-(2-cyclopropylpyridin-3-yl)-1-methyl-7-(trifluoromethyl)-1,5-dihydro-4H-imidazo[4,5-c][1,8]naphthyridin-4-one] | > 30 nM | ~100% | 10500 ng·h/mL |  | 
Cn1cnc2c(=O)n(-c3cccnc3C3CC3)c3cc(C(F)(F)F)ccc3c21 (single isomer, unassigned) [Compound 48-P2, 5-(2-cyclopropylpyridin-3-yl)-1-methyl-7-(trifluoromethyl)-1,5-dihydro-4H-imidazo[4,5-c]quinolin-4-one] | > 30 nM | ~100% | 24400 ng·h/mL |  | 
Cn1cnc2c(=O)n(-c3cccnc3C3CC3)c3cc(Cl)ccc3c21 (single isomer, unassigned) [Compound 49-P2, 7-chloro-5-(2-cyclopropylpyridin-3-yl)-1-methyl-1,5-dihydro-4H-imidazo[4,5-c]quinolin-4-one] | > 30 nM | 89.6% | 11300 ng·h/mL |  | 
O=c1c2ncoc2c2ccc(C(F)(F)F)nc2n1-c1cccnc1C1CC1 (single isomer, unassigned) [Compound 81-P2, 5-(2-cyclopropylpyridin-3-yl)-7-(trifluoromethyl)oxazolo[4,5-c][1,8]naphthyridin-4(5H)-one] | > 30 nM |  |  |  | 
Cn1cnc2c(=O)n(-c3cccc(F)c3Cl)c3cc(Cl)ccc3c21 [Compound 39, 7-chloro-5-(2-chloro-3-fluorophenyl)-1-methyl-1,5-dihydro-4H-imidazo[4,5-c]quinolin-4-one] | > 30 nM |  |  |  | 
Cc1ncccc1-n1c(=O)c2ncoc2c2ccc(C(F)(F)F)nc21 [Compound 40, 5-(2-methylpyridin-3-yl)-7-(trifluoromethyl)oxazolo[4,5-c][1,8]naphthyridin-4(5H)-one] | > 30 nM |  |  |  | 
Cc1ncccc1-n1c(=O)c2ncn(C)c2c2ccc(C(F)(F)F)cc21 [Compound 45, 1-methyl-5-(2-methylpyridin-3-yl)-7-(trifluoromethyl)-1,5-dihydro-4H-imidazo[4,5-c]quinolin-4-one] | > 30 nM |  |  |  | 
